Results reported in patent US20200085864A1, “Stannous Fluoride Sugar Alcohol Solid Solutions” (WhiteHill Life Sciences, LLC, priority 2018, published 2020).

Conditions: aqueous SnF2

[F][Sn][F] [Stannous fluoride]
Natural pH of stannous fluoride: about 3.2
